Holding throughout (type): functional
The species entered for assay [1] is Mus musculus. The assay is described as follows: In vitro inhibitory activity against TNF-alpha production in mouse macrophages stimulated with LPS.
Assay [2] relates to Mus musculus. The assay is described as follows: Protection against LPS-induced death of D-galactosamine-sensitized mice (10 in number) at specified dose of 0 mg/kg on day 7.
Assay [3] relates to Mus musculus. The assay is described as follows: Protection against LPS-induced death of D-galactosamine-sensitized mice (10 in number) at specified dose of 100 mg/kg on day 7.
For assay [4], the system named is Mus musculus. The assay is described as follows: Protection against LPS-induced death of D-galactosamine-sensitized mice (10 in number) at specified dose of 50 mg/kg on day 7.

pIC50: −log10 of the molar value.

As for `CC(=O)Oc1cc2c(cc1OC(C)=O)C1Cc3cc(OC(C)=O)c(OC(C)=O)cc3C(C2)N1C(C)=O`, the pIC50 in the assay listed under Mus musculus [1] was under 4.00.

Turning to `COc1cc2c(cc1OC)C1Cc3cc(OC)c(OC)cc3C(C2)N1C(C)=O`, the negative-log IC50 (pIC50) in the assay listed under Mus musculus [1] is 4.42.

Take `CCCC(=O)N1C2Cc3cc4c(cc3C1Cc1cc3c(cc12)OCO3)OCO4`: the Survival rate with Mus musculus [2] was 0 number of mice; in the assay with Mus musculus [3] it was 5 number of mice; in the assay with Mus musculus [4], 4 number of mice. The molecule further showed a pIC50 in the assay listed under Mus musculus [1] of 4.96.

As to `CC(=O)N1C2Cc3cc4c(cc3C1Cc1cc3c(cc12)OCO3)OCO4`, the Survival rate with Mus musculus [2] is 0 number of mice; with Mus musculus [3] it was 9 number of mice; in the assay with Mus musculus [4] it was 7 number of mice. For the same molecule, in the assay listed under Mus musculus [1], the pIC50 was 4.89.

For the molecule `CNC(=O)N1C2Cc3cc4c(cc3C1Cc1cc3c(cc12)OCO3)OCO4`, the values for the Survival rate in the assay with Mus musculus [2], in the assay with Mus musculus [3] and in the assay on Mus musculus [4] were 0 number of mice, 6 number of mice and 6 number of mice, respectively. In addition, the pIC50 in the assay listed under Mus musculus [1] is 4.82.

With `O=C(CCO)N1C2Cc3cc4c(cc3C1Cc1cc3c(cc12)OCO3)OCO4`, the Survival rate with Mus musculus [2] is 0 number of mice; with Mus musculus [3], 6 number of mice; in the assay on Mus musculus [4] it was 5 number of mice. Besides, the pIC50 in the assay listed under Mus musculus [1] is 4.57.

On to `O=CN1C2Cc3cc4c(cc3C1Cc1cc3c(cc12)OCO3)OCO4`, for which the Survival rate with Mus musculus [2] is 0 number of mice; in the assay on Mus musculus [3], 7 number of mice; with Mus musculus [4], 7 number of mice. The pIC50 in the assay listed under Mus musculus [1] is 4.66.

As to `NCCN1C2Cc3cc4c(cc3C1Cc1cc3c(cc12)OCO3)OCO4`, the Survival rate was 0 number of mice in the assay with Mus musculus [2], 8 number of mice with Mus musculus [3] and 8 number of mice in the assay on Mus musculus [4]. Besides, in the assay filed under Mus musculus [1], the pIC50 was 4.85.

`CCCN1C2Cc3cc4c(cc3C1Cc1cc3c(cc12)OCO3)OCO4` gave a pIC50 in the assay listed under Mus musculus [1] of 4.25.

Consider `CCN1C2Cc3cc4c(cc3C1Cc1cc3c(cc12)OCO3)OCO4`, for which the values for the Survival rate in the assay with Mus musculus [2], with Mus musculus [3] and in the assay on Mus musculus [4] were 0 number of mice, 10 number of mice and 9 number of mice, respectively. This molecule had a pIC50 in the assay listed under Mus musculus [1] of 4.57.

In the case of `COCC(=O)N1C2Cc3cc4c(cc3C1Cc1cc3c(cc12)OCO3)OCO4`, the pIC50 in the assay listed under Mus musculus [1] is 4.77.

In the case of `CC(=O)N1C2Cc3cc4c(cc3C1Cc1cc(O)c(O)cc12)OCO4` (stereo not drawn), in the assay filed under Mus musculus [1], the pIC50 was 4.34.

In the assay filed under Mus musculus [1], `O=C(c1ccccc1)N1C2Cc3cc4c(cc3C1Cc1cc3c(cc12)OCO3)OCO4` gave a pIC50 of 4.42.

For `CCOC(=O)N1C2Cc3cc4c(cc3C1Cc1cc3c(cc12)OCO3)OCO4`, the Survival rate in the assay with Mus musculus [2] was 0 number of mice; with Mus musculus [3], 3 number of mice; in the assay on Mus musculus [4], 3 number of mice. The molecule also showed a pIC50 in the assay filed under Mus musculus [1] of 4.51.

Molecule `Oc1cc2c(cc1O)C1Cc3cc4c(cc3C(C2)N1)OCO4` (stereo not drawn) showed a pIC50 in the assay filed under Mus musculus [1] of 4.36.

In the assay filed under Mus musculus [1], `CN1C2Cc3cc4c(cc3C1Cc1cc3c(cc12)OCO3)OCO4` showed a pIC50 of 4.72.

With `c1c2c(cc3c1OCCO3)C1Cc3cc4c(cc3C(C2)N1)OCCO4`, the Survival rate with Mus musculus [2] is recorded as 0 number of mice; with Mus musculus [3] it was 4 number of mice; in the assay with Mus musculus [4] it was 1 number of mice. In the assay listed under Mus musculus [1], the pIC50 is 4.66.

Turning to `c1c2c(cc3c1OCO3)C1Cc3cc4c(cc3C(C2)N1)OCO4`, the figures for the Survival rate in the assay on Mus musculus [2], in the assay with Mus musculus [3] and with Mus musculus [4] were 0 number of mice, 10 number of mice and 7 number of mice, respectively. The pIC50 in the assay filed under Mus musculus [1] was 4.82.

On to `CCCCCC(=O)N1C2Cc3cc4c(cc3C1Cc1cc3c(cc12)OCO3)OCO4`, for which, in the assay listed under Mus musculus [1], the pIC50 was under 4.00.

In the assay listed under Mus musculus [1], `COc1cc2c(cc1OC)C1Cc3cc4c(cc3C(C2)N1)OCO4` (stereo not drawn) had a negative-log IC50 (pIC50) of 4.00.

`CCCCN1C2Cc3cc4c(cc3C1Cc1cc3c(cc12)OCO3)OCO4`: the pIC50 in the assay filed under Mus musculus [1] is 4.24.

In the case of `CCOC(=O)CC(=O)N1C2Cc3cc4c(cc3C1Cc1cc3c(cc12)OCO3)OCO4`, the values for the Survival rate with Mus musculus [2], in the assay on Mus musculus [3] and in the assay on Mus musculus [4] were 0 number of mice, 3 number of mice and 2 number of mice, respectively. In the assay filed under Mus musculus [1], this molecule had a pIC50 of 4.59.

Take `CC(=O)N1C2Cc3cc4c(cc3C1Cc1cc3c(cc12)OCCO3)OCCO4`: the Survival rate in the assay on Mus musculus [2] was 0 number of mice; with Mus musculus [3] it was 7 number of mice; in the assay with Mus musculus [4], 4 number of mice. In the assay listed under Mus musculus [1], this molecule showed a pIC50 of 4.47.

As to `CC(=O)N1C2Cc3cc(O)c(O)cc3C1Cc1cc(O)c(O)cc12`, the pIC50 in the assay listed under Mus musculus [1] was under 4.00.

Turning to `NCCCN1C2Cc3cc4c(cc3C1Cc1cc3c(cc12)OCO3)OCO4`, in the assay filed under Mus musculus [1], the pIC50 is 4.28.

`CCOC(=O)C(=O)N1C2Cc3cc4c(cc3C1Cc1cc3c(cc12)OCO3)OCO4`: the Survival rate is on record as 0 number of mice with Mus musculus [2], 2 number of mice with Mus musculus [3] and 3 number of mice in the assay with Mus musculus [4]. In the assay listed under Mus musculus [1], this molecule gave a pIC50 of 4.82.

Consider `CCC(=O)N1C2Cc3cc4c(cc3C1Cc1cc3c(cc12)OCO3)OCO4`, for which the Survival rate in the assay with Mus musculus [2] was 0 number of mice; in the assay on Mus musculus [3], 8 number of mice; with Mus musculus [4], 8 number of mice. The pIC50 in the assay filed under Mus musculus [1] was 4.96.

`COc1cc2c(cc1OC)C1Cc3cc4c(cc3C(C2)N1C(C)=O)OCO4` (stereo not drawn) showed a pIC50 in the assay listed under Mus musculus [1] of 4.66.

For `OCCN1C2Cc3cc4c(cc3C1Cc1cc3c(cc12)OCO3)OCO4`, the Survival rate in the assay on Mus musculus [2] was 0 number of mice; in the assay on Mus musculus [3], 9 number of mice; in the assay on Mus musculus [4], 7 number of mice. Moreover, the pIC50 in the assay filed under Mus musculus [1] was 4.44.

Consider `COc1cc2c(cc1OC)C1Cc3cc(OC)c(OC)cc3C(C2)N1`, for which the pIC50 in the assay listed under Mus musculus [1] was under 4.00.

In the assay listed under Mus musculus [1], `Oc1cc2c(cc1O)C1Cc3cc(O)c(O)cc3C(C2)N1` gave a pIC50 of under 4.00.

For the molecule `O=C(CO)N1C2Cc3cc4c(cc3C1Cc1cc3c(cc12)OCO3)OCO4`, the Survival rate is recorded as 0 number of mice with Mus musculus [2], 9 number of mice in the assay on Mus musculus [3] and 6 number of mice in the assay with Mus musculus [4]. This molecule showed a pIC50 in the assay filed under Mus musculus [1] of 4.70.

Regarding `CC(=O)CCCCn1c(=O)c2c(ncn2C)n(C)c1=O` [PENTOXIFYLLINE], the Survival rate was 0 number of mice in the assay with Mus musculus [2] and 4 number of mice in the assay with Mus musculus [3]. In the assay filed under Mus musculus [1], this molecule showed a pIC50 of 4.17.

Values taken from ChEMBL document CHEMBL1151099, “Synthesis of new TNF- Inhibitors and their biological properties” (Bioorg Med Chem Lett, 1996).
